Measured values reported in ChEMBL document CHEMBL3808372, “Identification of quinones as novel PIM1 kinase inhibitors” (Bioorg Med Chem Lett, 2016).

Columns and labels:
[1] = biological target: Serine/threonine-protein kinase pim-1 (Homo sapiens, UniProt P11309); experiment: Inhibition of recombinant human Pim1
[2] = Cytotoxicity against human DU145 cells assessed as cell growth inhibition after 72 hrs by Alamar blue assay; assay type: functional, cell-based; conditions: DU-145, 72 h

Chain of Serine/threonine-protein kinase pim-1 (P11309 whole entry): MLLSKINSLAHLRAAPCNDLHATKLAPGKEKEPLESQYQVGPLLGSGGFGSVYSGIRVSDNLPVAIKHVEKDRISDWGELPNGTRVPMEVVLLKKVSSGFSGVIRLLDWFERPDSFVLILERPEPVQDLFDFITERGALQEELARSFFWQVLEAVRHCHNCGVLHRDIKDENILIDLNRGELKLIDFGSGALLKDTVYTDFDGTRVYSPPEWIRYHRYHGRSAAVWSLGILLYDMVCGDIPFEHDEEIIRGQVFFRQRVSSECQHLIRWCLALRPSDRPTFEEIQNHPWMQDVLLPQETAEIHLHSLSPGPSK

| IC50 [1] [µM] | SMILES | IC50 [2] [µM] |
| --- | --- | --- |
| 3 | CC(=O)Oc1ccc(O)c2c1C(=O)C=CC2=O |  |
| 3.6 | CC(C)C(C)OC1CC(=O)CC2C(=O)c3c(O)ccc(O)c3C(=O)C12 (stereo unspecified) | 4.06 |
| 28 | Cc1cc(O)c2c(c1)C(=O)C=CC2=O [RAMENTACEONE] |  |
| 27 | O=C1C=C(CBr)C(=O)c2c(O)ccc(O)c21 |  |
| 21.4 | COc1c(O)c(O)c2c(c1O)C(=O)c1cc(C)cc(O)c1C2=O | 3.93 |
| 23.8 | CC(C)(C)OC1CC(=O)CC2C(=O)c3cccc(O)c3C(=O)C12 (stereo unspecified) |  |
| 3.5 | CC(C)(C)OC1CC(O)CC2C(=O)c3c(O)ccc(O)c3C(=O)C12 (stereo unspecified) | 3.21 |
| 11.6 | COc1cccc2c1C(=O)c1c(O)ccc(O)c1C2=O |  |
| 57.1 | Oc1ccc(O)c2c(O)c3c(O)ccc(O)c3c(O)c12 |  |
| 28 | O=Cc1cc(O)c2c(c1O)C(=O)C=CC2=O |  |
| 7.4 | O=C1C(CO)=C(CO)C(=O)c2c(O)ccc(O)c21 |  |

| SMILES | IC50 [1] [µM] | IC50 [2] [µM] |
| --- | --- | --- |
| Cc1cc(O)c2c(c1)C(=O)c1cc(O)cc(O)c1C2=O [EMODIN] | 2.5 | 2.02 |
